The values that follow come from patent US8722736B2, “Multi-dose concentrate esmolol with benzyl alcohol” (Baxter International Inc., priority 2007, dated 2014).

This series can be described thus: pH dependence of esmolol degradation. In kind it is physicochemical. The source says:
The concentrate of present invention can also include a pharmaceutically acceptable buffer to aid in maintaining the pH in a range of from about 3.5 to about 7.0. Preferably, the pH is maintained between about 4.5 and about 5.5, more preferably between 4.9 and 5.1. […] Suitable buffers are those buffers that provide sufficient buffering capacity at the desired pH range and are pharmaceutically acceptable for injection into a patient. Examples of buffers useful in the present invention include, but are not limited to, acetate, glutamate, citrate, tartrate, benzoate, lactate, gluconate, phosphate and glycine and conjugate acids thereof. The concentration of the buffer can be from about 0.005 to about 2 M. In a preferred embodiment, the buffering agent comprises a combination of sodium acetate and glacial acetic acid. A preferred combination of buffers can include sodium acetate at from about 0.005 to about 0.3 M and glacial acetic acid at from about 0.05 to about 0.3 M.

SMILES strings stand for the structures.

In the case of `COC(=O)CCc1ccc(OCC(O)CNC(C)C)cc1.Cl` (stereo not shown) [esmolol, methyl3-[4-[2-hydroxy-3-(isopropylamino)propoxy]phenyl]propionate hydrochloride], the “pH at which esmolol is most stable” value is recorded as “about 5.0”.
